Legend:
Type in all cases: in vivo, piglets
[1] = Microbiological assay of faecal concentrations of colistin; details: 15 mg/kg/d colistin sulfate
Description: Fecal concentrations of colistin were measured by a microbiological assay using agar medium 10 (Difco, Becton-Dickinson, Le Pont-de-Claix) and Bordetella bronchiseptica ATCC4617 as indicator strain. The limit of detection was 1.5 μg of colistin base per g of feces.
(§1) Fresh faecal samples were collected from each piglet, diluted ten-fold (w/v) in peptone broth containing 30% glycerol, and faecal suspension aliquots were stored at −80° C. until microbiological analysis.

[2] = system: colistin-resistant Enterobacteriaceae; assay: Piglet model: faecal counts of colistin-resistant Enterobacteriaceae; details: during follow-up (14 days)
Description: (§2) The model was used according to the synopsis depicted in FIG. 1.
(§3) Colistin sulfate (Colivet), a non absorbable antibiotic, used in human decontamination, was given once per day orally in this experiment. Two regimens were tested: 7.5 mg/kg/d and 15 mg/kg/d, equivalent to human doses 500 mg/d and 1000 mg/d, respectively. The duration of the treatment was 3 days. The objective of such very high doses, given over a short period of time, was to obtain a rapid eradication of ESBL-producing Enterobacteriaceae without the emergence of strains resistant to colistin. • E. coli Nissle strain 1917 (EcN1917, Mutaflor). The dose was calculated to administrate the highest dose recommended in humans: 2 enteric-coated capsules of 2.5-25×10^9 viable bacteria, given orally, once daily during 6 days.
as §1
(§4) Before analysis, frozen aliquots were thawed by standing approximately 1 hr at room temperature and faecal suspensions were serially diluted in saline before plating on appropriate agar plates.
Cefotaxime- and colistin-resistant Enterobacteriaceae were counted using Drigalski agar supplemented with 1.5 mg/L cefotaxime and 10 mg/L colistin base respectively. […]

[3] = system: ESBL-producing Enterobacteriaceae; assay: Piglet model: faecal counts of cefotaxime-resistant (ESBL-producing) Enterobacteriaceae after colistin decontamination and E. coli Nissle 1917 repopulation
Description: as §2
In summary, piglets were treated sequentially with: • cefdinir (4 mg/kg/d) during 2 days, in order to enhance the carriage of ESBL-producing bacteria, • colistin sulfate (destroy phase):
as §3, §1, §4
Total Enterobacteriaceae were counted using Drigalski agar (BioRad Laboratories, Marnes-La-Coquette, France) plates.
Cefotaxime- and colistin-resistant Enterobacteriaceae were counted using Drigalski agar supplemented with 1.5 mg/L cefotaxime and 10 mg/L colistin base respectively.
Bacterial counts which were below the detection threshold (2 log CFU/g of faeces) were considered to be equal to the 2 log CFU/g for statistical analysis.

Q: For colistin sulfate, which “faecal concentrations relative to the MIC” value [1] is on record?
A: Its value is “at least 10 fold”.

Q: What about the “selection of strains resistant to colistin” value [2] of the same substance?
A: The value was “no selection of strains resistant to colistin was observed”.

Q: And the “efficacy to eradicate ESBL-producing enterobacteria (destroy phase)” value ([3]; 15 mg/kg/d compared with 7.5 mg/kg/d, orally once per day, 3 days)?
A: The value was “best efficacy”.

Q: And the “decolonization of ESBL-producing enterobacteria” value ([3]; colistin for three days followed by six days of E. coli strain Nissle 1917)?
A: The value was “rapid and efficacious decolonization”.

Q: And the “efficacy in the restore phase” value ([3]; group which had received the high dose of colistin)?
A: Its value is “best efficacy”.

Reference: patent US20130323217A1, “COMPOSITIONS AND METHODS FOR THE CONTROLLED REPOPULATION OF GRAM-NEGATIVE BACTERIA IN THE COLON” (Da Volterra, priority 2010, published 2013)
